Source: ChEMBL document CHEMBL1201862, “PubChem BioAssay data set” (2004)
Activity calls are given as the source filed them.

What was measured:
Large T antigen = Large T antigen (Simian virus 40, UniProt P03070); type: functional, Betapolyomavirus macacae;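 further: Confirmatory-stage PubChem screen for compounds that inhibit SV40 T antigen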
HeLa = assay: HeLa cell cytotoxicity, dose response, cytotoxicity control, 24 h, cherry-picked samples (AID 504726); type: functional, cell-based; conditions: Homo sapiens;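 further: potency for cytotoxicity as loss of luminescence signal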
[1] = cytotoxicity in HEK-293T cells, dose response, cytotoxicity control for BCR NF-kB inhibitor project, luminescence, B-cell screen hits (AID 489021); type: functional, cell-based;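 further: HEK-293T cells carrying an NF-kB luciferase reporter; cells exposed to compound for about 14 hours before viability readout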
[2] = inhibitors of firefly luciferase expression or activity, dose response, H4 neuroglioma cells, luminescence (AID 1990); type: functional, cell-based
[3] = cytotoxicity in HEK-293T cells, dose response, cytotoxicity control for TCR NF-kB inhibitor project, luminescence, T-cell screen hits (AID 489026); type: functional, cell-based;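 further: cells exposed to compound about 14 hours before the viability readout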
cells = type: functional, cell-based
[4] = inhibitors of SNCA 5'UTR-driven translation, confirmation, luminescence, H4 neuroglioblastoma cells, dose confirmation (AID 2454); type: functional, cell-based;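 further: H4 neuroglioblastoma cells carrying an alpha-synuclein 5'UTR luciferase reporter; potency for inhibition of the luciferase signal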
[5] = Luminescence Cell-Based Dose Response HTS to Identify Inhibitors of 5'UTR Stem-Loop Driven Prion Protein mRNA Translation in H4 Neuroglioblastoma Cells. [Related pubchem assays: 1827 (Project Summary), 1813 (Primary HTS)]; type: functional
[6] = luciferase reporter signal reduction – luminescence, H4-C neuroglioblastoma cells, dose response (AID 2458); type: functional, cell-based;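 further: H4 neuroglioblastoma cells stably carrying a luciferase reporter gene fusion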
[7] = inhibitors of SNCA 5'UTR-driven reporter translation, confirmation, H4 neuroglioma cells, luminescence (AID 1988); type: functional, cell-based
NS3 = NS3 (Hepatitis C virus, UniProt A3EZJ3); assay: PubChem AID 2173; parameters: species or system Hepacivirus hominis
Chain of NS3 (A3EZJ3 whole entry): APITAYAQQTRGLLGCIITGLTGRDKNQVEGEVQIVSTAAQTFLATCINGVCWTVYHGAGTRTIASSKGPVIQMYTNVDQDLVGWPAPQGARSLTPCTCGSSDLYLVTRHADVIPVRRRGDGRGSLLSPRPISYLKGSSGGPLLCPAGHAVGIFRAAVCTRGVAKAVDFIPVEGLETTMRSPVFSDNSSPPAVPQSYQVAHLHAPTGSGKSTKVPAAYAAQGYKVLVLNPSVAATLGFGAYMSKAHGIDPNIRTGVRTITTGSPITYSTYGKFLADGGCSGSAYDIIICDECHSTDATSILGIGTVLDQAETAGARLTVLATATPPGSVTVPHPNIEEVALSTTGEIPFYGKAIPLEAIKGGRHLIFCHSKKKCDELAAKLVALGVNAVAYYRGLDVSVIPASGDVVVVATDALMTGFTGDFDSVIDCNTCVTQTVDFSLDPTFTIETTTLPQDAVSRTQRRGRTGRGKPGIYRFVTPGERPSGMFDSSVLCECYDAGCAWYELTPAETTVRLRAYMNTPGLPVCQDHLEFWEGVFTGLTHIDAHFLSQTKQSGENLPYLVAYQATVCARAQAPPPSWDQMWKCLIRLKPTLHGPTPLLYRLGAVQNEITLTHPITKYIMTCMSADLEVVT

Vero [8] = assay: Vero cell cytotoxicity, cytotoxicity control for flavivirus capping enzyme inhibitors (AID 588742); type: functional; conditions: Chlorocebus sabaeus
[9] = target: Induced myeloid leukemia cell differentiation protein Mcl-1 (Homo sapiens, UniProt Q07820); type: functional
Chain of Induced myeloid leukemia cell differentiation protein Mcl-1 (Q07820 whole entry): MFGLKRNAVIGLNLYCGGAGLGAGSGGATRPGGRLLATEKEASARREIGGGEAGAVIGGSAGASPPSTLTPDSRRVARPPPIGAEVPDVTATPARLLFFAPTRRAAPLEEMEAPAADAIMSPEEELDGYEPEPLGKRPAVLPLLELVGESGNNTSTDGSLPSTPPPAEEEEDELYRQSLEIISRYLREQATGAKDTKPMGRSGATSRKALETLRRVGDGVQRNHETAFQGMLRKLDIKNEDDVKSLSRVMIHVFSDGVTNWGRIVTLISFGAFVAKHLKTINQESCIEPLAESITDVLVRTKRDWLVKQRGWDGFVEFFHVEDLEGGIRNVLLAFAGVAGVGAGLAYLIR

Vero [10] = assay: cells; type: functional; conditions: Chlorocebus sabaeus
INS1 = assay: beta cell apoptosis inhibitors, cytokine rescue, dose response, luminescence, retest (AID 449756); type: functional, cell-based; conditions: Rattus norvegicus;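 further: cell death triggered by IL-1 beta plus TNF-alpha plus IFN-gamma mixture; protective hits raise ATP signal compared with cytokine alone wells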
CAAX prenyl protease 2 = target: T1, CAAX prenyl protease 2 (Saccharomyces cerevisiae S288c, UniProt Q03530); type: biochemical
T1 sequence (Q03530 whole entry): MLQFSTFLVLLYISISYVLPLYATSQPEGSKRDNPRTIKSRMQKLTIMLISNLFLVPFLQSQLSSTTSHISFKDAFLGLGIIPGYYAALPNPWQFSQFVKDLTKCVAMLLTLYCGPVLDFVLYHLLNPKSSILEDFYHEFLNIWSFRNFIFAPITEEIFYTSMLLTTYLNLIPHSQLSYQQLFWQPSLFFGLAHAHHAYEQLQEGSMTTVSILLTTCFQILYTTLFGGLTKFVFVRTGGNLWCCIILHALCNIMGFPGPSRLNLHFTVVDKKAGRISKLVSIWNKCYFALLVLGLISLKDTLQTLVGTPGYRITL

[11] = A Cell Based Secondary Assay To Explore Cytotoxicity of Compounds that Sensitize Mycobacterium Tuberculosis to Beta-Lactam Antibiotics.; type: functional

Chain of Large T antigen (P03070 whole entry): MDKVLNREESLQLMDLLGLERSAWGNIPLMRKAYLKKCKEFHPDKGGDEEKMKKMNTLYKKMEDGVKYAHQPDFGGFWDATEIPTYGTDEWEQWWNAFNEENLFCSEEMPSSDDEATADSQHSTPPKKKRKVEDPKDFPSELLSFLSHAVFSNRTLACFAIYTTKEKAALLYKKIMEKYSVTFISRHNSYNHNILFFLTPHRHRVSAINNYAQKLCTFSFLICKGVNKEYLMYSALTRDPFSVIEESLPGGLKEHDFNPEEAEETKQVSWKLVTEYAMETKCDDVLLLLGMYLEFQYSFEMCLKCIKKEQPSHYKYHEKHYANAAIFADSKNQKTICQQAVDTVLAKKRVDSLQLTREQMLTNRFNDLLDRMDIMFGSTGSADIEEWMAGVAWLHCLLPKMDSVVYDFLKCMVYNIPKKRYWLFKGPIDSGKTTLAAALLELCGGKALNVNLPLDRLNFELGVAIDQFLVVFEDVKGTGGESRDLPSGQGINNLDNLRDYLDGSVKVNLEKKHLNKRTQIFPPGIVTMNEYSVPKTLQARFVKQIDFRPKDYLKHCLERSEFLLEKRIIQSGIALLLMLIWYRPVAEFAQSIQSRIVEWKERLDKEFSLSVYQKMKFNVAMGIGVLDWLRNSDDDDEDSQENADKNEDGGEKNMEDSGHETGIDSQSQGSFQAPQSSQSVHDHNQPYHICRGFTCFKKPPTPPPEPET

In the case of `Cc1cc(N)ccc1N=Nc1c(C)n(C)n(-c2ccccc2)c1=O`, the IC50 (Large T antigen) is reported as 33.9 µM (active) and the AC50 (HeLa) is reported as 285 µM (active).

In the case of `COc1ccc(-c2noc(N3CCC(C(=O)Nc4cccc(OC)c4)CC3)n2)cc1`, the IC50 [1] is reported as > 80 µM (inactive).

In the case of `COc1cc(C(=O)N2CCN(c3cc(Cl)ccc3Cl)CC2)cc(OC)c1OC`, the EC50 [2] is reported as 0.148 µM (active), the IC50 [3] is reported as > 80 µM (inactive) and the EC50 (cells) is reported as 0.457 µM (active). For the same molecule, the EC50 [4] was 0.575 µM (active), the EC50 [5] was 0.164 µM (active) and the EC50 [6] was 0.352 µM (active). For the same molecule, the EC50 [7] was < 0.1 µM (active).

In the case of `COc1ccccc1NC(=O)c1cc2cc(Br)ccc2cc1O`, the IC50 (NS3) is reported as > 4.03 µM (active), the CC50 (Vero [8]) is reported as 4.04 µM (active) and the IC50 [9] is reported as 2.63 µM (active). The CC50 (Vero [10]) was 2.72 µM (active) and the AC50 (INS1) was 6.21 µM (active).

With `CCCCOc1ccc(-c2cc(C(F)(F)F)c(C#N)c(SCC(=O)O)n2)cc1` the IC50 (NS3) was 1.98 µM (active) and the AC50 (CAAX prenyl protease 2) was 25.4 µM (active).

With `COc1cc2nc(N3CCN(C(=O)OCc4ccccc4)[C@H](C(=O)NC(C)(C)C)C3)nc(N)c2cc1OC` the CC50 [11] was 29.3 µM (active).

With `CCCc1nc(SC)nc(O)c1C` the AC50 (HeLa) was 81.7 µM (active).

For `CC(C)(C)c1ccc(OCc2ccc(C(=O)N/N=C3\CC4CC=CC34)cc2)cc1` (stereo not given), the CC50 [11] was > 40 µM (active).
